How the values were obtained:
[1] = system: POMC promoter (-706/+64 rat POMC-luc) in AtT20 cells; assay: POMC promoter luciferase reporter transfection; assay type: cell-based, mouse; conditions: CRH 50 nM, luciferase over vehicle control
Source text: Transfection with POMC promoter.

AtT20 cells = assay: TUNEL apoptosis analysis; assay type: cell-based, mouse
Protocol: Terminal Deoxynucleotidyltransferase-mediated dUTP Nick End Labeling (TUNEL). Apoptosis-induced nuclear DNA fragmentation was detected using the in situ cell death detection kit, TMR red (Roche Diagnostics, Indianapolis, IN) following the manufacturer's protocol. Briefly, 48 hours following treatment with thiazolidinedione compounds (TZDs), AtT20 cells were fixed in 4% paraformaldehyde, permeabilized with 0.1% sodium citrate/ 0.6% Tween 20 (pH 7.4) for 2 min at 4° C. prior to incubation in Tunel reaction mix (TMR red/dNTP mix, TdT, and labeling buffer) for 60 min at 37° C. Slides were washed (3×5 min) in PBS/ Triton/ BSA (0.3%) and visualized on an Olympus BH2 immunofluorescent microscope.

human patients = conditions: cited from earlier work
[2] = system: mouse corticotroph tumor cells (AtT20); assay: Western blot analysis of TZD-treated corticotroph cells; assay type: cell-based; conditions: 10^−5 M, vs. vehicle
Protocol: Western Blot Analysis: AtT20 cells were seeded at about 1×10^6 per well and human pituitary cell cultures were seeded at about 0.5×10^6 per well in 6-well plates for 24 hours prior to treatment with TZD's. Cells were then washed with PBS, and protein samples prepared in RIPA buffer and resolved under reducing conditions on 12% SDS-polyacrylamide gels using standard methods (Elstner, E., et al., Ligands for peroxisome proliferator-activated receptor-γ and retinoic acid receptor inhibit growth and induce apoptosis of human breast cancer cells in vitro and in BNX mice. Proc. Natl. Acad. Sci. USA 95:8806-8811 [1998]). Resolved proteins were transferred to nitrocellulose membranes and probed with antibodies to Bc1-2 (1:500), Bax (1:1000), TRAIL (1:500), p53 (1:1000) (all from Santa-Cruz, Cailf.), p-Rb (Ser 795) (1:1000), cleaved and uncleaved caspase-3 (1:500) (Cell Signalling, Beverly, Mass.) overnight at 4° C. After washing, membranes were incubated with appropriate IgG- horseradish peroxidase conjugates, and immunoreactive protein bands were visualized with ECL (Amersham, Buckinghamshire, UK). Total protein was normalized by reprobing with anti-actin antibody (1:5000, Sigma, St. Louis, Mo.) or Ponceau S staining, and protein bands quantified by densitometry (Video Densitometer model 620, Bio-Rad).

[3] = system: rat GH3, murine αT3, and human pituitary tumor cells; assay: Annexin-FITC, FACS and TUNEL apoptosis analysis; assay type: cell-based; conditions: control 33±3, p<0.0002
Protocol: Apoptosis Assay: Annexin FITC by flow Cytometry. GH3, αT3 and human pituitary tumor cells were treated, washed in PBS, trypsinized, centrifuged, and washed prior to incubation with a FITC-labeled monoclonal Annexin antibody and PI for 30 min at room temperature according to manufacturer's instructions (Pharmingen, San Diego, Cailf.). About 1×10^6 cells were prepared and analyzed by flow cytometry, labeled nuclei (PI) were gated on light scatter to remove debris, and the percentage of Annexin-FITC positive cells determined. Annexin-FITC positive cells were also visualized with an Olympus BH2 immunofluorescent microscope.
Terminal Deoxynucleotidyltransferase-mediated dUTP Nick End Labeling (TUNEL). Apoptosis-induced nuclear DNA fragmentation was detected using the in situ cell death detection kit, TMR red (Roche Diagnostics, Indianapolis, Ind.) following the manufacturer's protocol. Briefly, 48 hours following TZD treatment, GH3, αT3 and human pituitary tumor cells were fixed in 4% weight per volume paraformaldehyde, permeabilized with 0.1% sodium citrate/ 0.6% Tween 20 (pH 7.4) for 2 min at 4° C. prior to incubation in Tunel reaction mix (TMR red/dNTP mix, TdT, and labeling buffer) for 60 min at 37° C. Slides were washed (3×5 min) in PBS/Triton/BSA (0.3%) and visualized on a an Olympus BH2 immunofluorescent microscope.

[4] = system: rat GH3 (PRL- and GH-secreting) cells; assay: Cell cycle distribution (FACS, propidium iodide); assay type: cell-based
Protocol: (§1) Cell Culture. […] Medium was replenished with ligands every 2 days, and cells maintained in serum-containing medium or in serum-free medium for up to 96 hours.
(§2) Cell Cycle Distribution. Following treatments, GH3, αT3, or human pituitary tumor cells were trypsinized, centrifuged (1500 rpm×2 min), washed with PBS, and treated with 20 µg/mL Rnase A (Calbiochem, La Jolla, Cailf.). DNA was stained with 100 μg/ mL propidium iodide (PI) for 30 min at 4° C. and protected from light, prior to analysis with a FACScan (Becton Dickinson, Franklin Lakes, N.J.). DNA histogram analysis was performed using the modFitLT software.
(§3) To determine the functional significance of pituitary tumor PPAR-γ expression, the effects of PPAR-γ ligands was tested on pituitary tumor cells in vitro. Troglitazone or rosiglitazone-treatment ([…]) of GH3 (PRL- and GH-secreting), and αT3 (gonadotroph-secreting) and human pituitary tumor cells for up to 48 hours, in serum-free conditions, or up to 96 hours, for cells maintained in serum-repleted conditions, induced G0-G1 cell-cycle arrest (GH3: control, G1 75±4% vs. ros, G1 85±2%, p=0.009; αT3: control, G1 67±0.5% vs. ros, G1 75±0.5%, p=0.01), and led to decreased number of cells in S-phase (GH3: control, 18±0.05% vs. ros, 12±0.5%, p=0.001; αT3: control, 31±0.5% vs. ros, 16±2.5%, p=0.03) (FIG. 11A).

[5] = system: mouse αT3 gonadotroph cells; assay: Cell cycle distribution (FACS, propidium iodide); assay type: cell-based
Protocol: as §1, §2, §3

[6] = system: Mouse corticotroph pituitary tumor cells (AtT20); assay: Growth of established corticotroph tumors in athymic nude mice; assay type: in vivo; conditions: oral 150 mg/kg/day, 3 weeks
Source text: The effects of TZD treatment were therefore tested on growth of already established pituitary corticotroph tumors, and steroid hormone levels in vivo. Mouse corticotroph pituitary tumor cells (AtT20) were innoculated subcutaneously in athymic nude mice, and tumors allowed to develop. […] Baseline serum ACTH and corticosterone levels, and tumor volumes were not different in the groups subsequently randomized as control or treated groups (data not shown, p=ns). […] All animals were euthanized at 6 weeks. The phenotypic appearance of the mice was strikingly different, and vehicle-treated mice were wasted, developed skin atrophy and appeared pigmented, with features of hypercorticolism (FIG. 8B).

[7] = system: Mouse gonadotroph pituitary tumor cells (αT3); assay: Growth of established gonadotroph tumors in athymic nude mice; assay type: in vivo; conditions: oral 150 mg/kg/day for 6 weeks, started 3 weeks post-inoculation; vehicle 3.2±0.76, p=0.005
Source text: As patients invariably present with already established and actively growing pituitary tumors, the effects of TZD treatment were therefore tested on growth of already established pituitary gonadotroph tumors in vivo. Mouse gonadotroph pituitary tumor cells (αT3) were inoculated subcutaneously in athymic nude mice, and tumors allowed to develop.

[8] = system: normal athymic Nu/Nu mice; conditions: 150 mg/kg for 6 weeks
Source text: A person first presented 2 years ago with bruising, skin striae, 70 lb weight gain and hypertension. Evaluation confirmed the diagnosis of Cushing's syndrome due to an ACTH-secreting pituitary tumor, which was resected by transsphenoidal surgery. The patient presented again one year later with weight gain, labile hypertension, diabetes and confirmed recurrence of Cushing's syndrome.

[9] = system: Somatolactotroph (GH3) tumor cells; assay: Somato-lactotroph tumor growth in athymic nude mice; assay type: in vivo, mouse; conditions: oral 150 mg/kg/day, 4 weeks
[10] = system: patient with Cushing's syndrome; assay: 24 hour urinary free cortisol excretion in a patient with Cushing's syndrome; assay type: in vivo, human; conditions: 8 mg daily, one patient, vs. baseline, p<0.02
[11] = system: AtT20 mouse pituitary (ACTH-secreting) tumor cells; assay: Cell cycle distribution (FACS, propidium iodide); assay type: cell-based; conditions: 10^−6 to 10^−4 M, up to 48 h serum-free or up to 96 h serum-replete
Protocol: as §1
as §2, with “AtT20” for “GH3, αT3, or human pituitary tumor”, “Calif.).” for “Cailf.).”, “μg/mL” for “μg/ mL”, “40°” for “4°”
To determine the functional significance of pituitary corticotroph PPAR-γ expression, the effects of PPAR-γ ligands were tested on ACTH-secreting pituitary tumor cells in vitro. Troglitazone or rosiglitazone-treatment (10^−6 to 10^−4 M) for up to 48 hours, when cells were maintained in serum-free conditions, or up to 96 hours, when cells were maintained in serum-replete conditions, induced G0-G1 cell-cycle arrest (control, G1 75±4% vs. ros, G1 85±2%, p=0.009), and led to decreased S-phase cells (control, 18±0.05% vs. ros, 12±0.5%, p=0.001) (FIG. 3A).

[12] = system: Mouse corticotroph AtT20 pituitary tumor cells; assay: Prevention of subcutaneous corticotroph tumor development in athymic nude mice; assay type: in vivo; conditions: oral 150 mg/kg/day, 4 weeks
[13] = system: gonadotroph tumor cells (LβT2); assay: Gonadotroph tumor growth in nude mice; assay type: in vivo, mouse; conditions: oral 150 mg/kg/day, 6 weeks
Source text: FIG. 14A is a representative picture of a rosiglitazone-treated mouse (“Ros”) and an untreated (control) mouse 4 weeks following commencement of administration of treatment. The untreated (control) mouse in the picture developed numerous large visible tumors.
In separate parallel similarly conducted studies, gonadotroph tumor cells (LβT2) were innoculated in mice as above.

CRH: Corticotrophin releasing hormone, a potent corticotroph proliferative factor
increase in POMC-transcription [1]: 1.6 fold | % apoptosis (TUNEL) (AtT20 cells; CRH 50 nM alone, 24 hours): 4±0.5%

Cc1c(C)c2c(c(C)c1O)CCC(C)(COc1ccc(CC3SC(=O)NC3=O)cc1)O2 (racemic) [Troglitazone, (±)-5-[4[(6-Hydroxy-2,5,7,8-tetramethylchroman-2-yl)methoxy]-benzyl]-2,4-thiazolidinedione]
reason for market withdrawal (human patients; withdrawn in March, 2000): reports of liver toxicity in humans | expression of pro-apoptotic protein p53 [2]: increased expression

CN(CCOc1ccc(CC2SC(=O)NC2=O)cc1)c1ccccn1 (racemic) [rosiglitazone, (±)-5-[[4-[2-(methyl-2-pyridinylamino)ethoxy]phenyl]methyl]-2,4-thiazolidinedione,(Z)-2-butenedioate]
% apoptosis ([3]; 10^−5 M): 69±7% | % apoptosis ([3]; 10^−6 M): 47±4% | cells in S-phase ([4]; control 18±0.05%, p=0.001): 12±0.5% | cells in G1 (G0-G1 cell-cycle arrest) ([4]; up to 48 h serum-free or up to 96 h serum-repleted, control 75±4%, p=0.009): 85±2% | cells in S-phase ([5]; control 31±0.5%, p=0.03): 16±2.5% | cells in G1 (G0-G1 cell-cycle arrest) ([5]; control 67±0.5%, p=0.01): 75±0.5% | reduction in plasma ACTH ([6]; vs. controls): 75% | reduction in serum corticosterone levels ([6]; vs. controls): 96% | plasma ACTH, mean±SEM ([6]; controls 3841±308, p=0.002): 978 ± 452 pg/mL | serum corticosterone, mean±SEM ([6]; controls 4304±2593, p<0.05): 181 ± 56 ng/mL | final tumor weight of established tumors [7]: 0.76 ± 0.29 g | serum corticosterone, treated vs. untreated normal mice ([8]; unstressed and stressed (data not shown)): similar | Plasma ACTH, baseline (unstressed), Mean±SEM ([8]; controls 434±40, p=ns): 474 ± 33 pg/mL | Plasma ACTH, stress-induced (15 minutes restraint), Mean±SEM ([8]; controls 5278±312, p=ns): 4764 ± 292 pg/mL | tumor diameter [9]: 1-2 cm | tumor weight ([9]; control 0.13±0.01, p=0.008): 0.04 ± 0.01 g | serum GH ([9]; control 545±153, p=0.03): 114 ± 66 ng/mL | serum PRL ([9]; control 656±289, p=ns): 95 ± 58 ng/mL | tolerability in humans (human patients; About 20 milligrams per day, sustained periods of time): without adverse effects | clinical surveillance, safety (human patients; more than 4500 patients with type 2 diabetes): safe, effective | decrease of 24 hour urinary free cortisol excretion (UFC) ([10]; after 2 weeks): 33% | decrease of 24 hour urinary free cortisol excretion (UFC) ([10]; after 3 weeks): 55% | % apoptosis (TUNEL) (AtT20 cells; 10^−5 M, control 33±3%, p<0.001): 69±7% | % apoptosis (TUNEL) (AtT20 cells; 10^−6 M, control 33±3%, p<0.001): 47±4% | increase in apoptosis (TUNEL) (AtT20 cells; 48 hours after treatment, vs. control): 2 fold | % apoptosis (TUNEL) (AtT20 cells; CRH 50 nM & ros 10^−5 M (pre-treatment before CRH), p<0.05 vs CRH): 19±3% | S-phase cells ([11]; control 18±0.05%, p=0.001): 12±0.5% | cells in G1 (G0-G1 cell-cycle arrest) ([11]; control 75±4%, p=0.009): 85±2% | tumor diameter ([12]; control 1-2 cm): 0.1 cm | serum corticosterone, mean±SEM ([12]; vehicle 785±374, p<0.05): 113 ± 17 ng/mL | plasma ACTH, mean±SEM ([12]; vehicle 2085±847, p<0.05): 98 ± 33 pg/mL | tumor weight ([13]; control 3.44±0.42, P<0.002): 0.81 ± 0.19 g | plasma LH ([13]; control 69±19, p=0.004): 6.8 ± 1.0 ng/mL

Source: patent US6673823B2, “Use of peroxisome proliferator activated receptor (PPAR)-γ ligands as a treatment for pituitary tumors and associated conditions, such as Cushing's syndrome” (Cedars-Sinai Medical Center, priority 2002, dated 2004)
